Test results: ChEMBL document CHEMBL1201862, “PubChem BioAssay data set” (2004)
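1) Cells in 96-well plates. 2) Compound, 48 h, 5 concentrations. 3) Linear interpolation between surrounding doses. 4) Unreached endpoint = highest concentration. Abbreviation: GI50, concentration required for 50% inhibition of growth.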 Activity calls are given as the source filed them. No stated cut-off is given here; in the data, active = GI50 up to about 1.1 µM and inactive = higher.

Legend:
Assay in all cases: DTP human tumour cell line panel, 48 h
IGROV-1 = tested on: IGROV-1
SK-MEL-2 = tested on: SK-MEL-2
ACHN = tested on: ACHN
K562 = tested on: K562
SF-268 = tested on: SF-268
UACC-62 = tested on: UACC-62
OVCAR-5 = tested on: OVCAR-5
SN12C = tested on: SN12C
NCI-H23 = tested on: NCI-H23
RXF 393 = tested on: RXF 393
NCI-H522 = tested on: NCI-H522
HCT-116 = tested on: HCT-116
SF-539 = tested on: SF-539
HCC 2998 = tested on: HCC 2998
OVCAR-4 = tested on: OVCAR-4
CCRF-CEM = tested on: CCRF-CEM

Measured: GI50

Cc1ccc(NC(=O)CSc2nnc(Cc3ccccc3)o2)cc1
inactive: IGROV-1 > 100 µM | SK-MEL-2 > 100 µM | ACHN > 100 µM | K562 > 100 µM | SF-268 > 100 µM | UACC-62 > 100 µM | OVCAR-5 > 100 µM | SN12C > 100 µM | NCI-H23 > 100 µM | RXF 393 > 100 µM | NCI-H522 > 100 µM | HCT-116 > 100 µM | SF-539 > 100 µM | HCC 2998 > 100 µM | OVCAR-4 > 100 µM | CCRF-CEM > 100 µM

CC(Oc1ccc(OCC2CCCCC2)cc1)C(=O)NCc1ccco1 (configuration not stated)
inactive: IGROV-1 43.7 µM | SK-MEL-2 21 µM | ACHN 36.1 µM | K562 42.3 µM | SF-268 98.9 µM | UACC-62 56 µM | SN12C 51.1 µM | RXF 393 22.6 µM | NCI-H522 18.4 µM | HCT-116 26.4 µM | SF-539 37.7 µM | HCC 2998 36.6 µM | OVCAR-4 56.5 µM | CCRF-CEM 41 µM

CCO/C([O-])=C(\C(=O)c1ccccc1)[n+]1c(C)sc2ccccc21
inactive: IGROV-1 > 100 µM | SK-MEL-2 58.3 µM | K562 81.3 µM | SF-268 > 100 µM | UACC-62 52.8 µM | OVCAR-5 > 100 µM | NCI-H23 61.8 µM | RXF 393 > 100 µM | NCI-H522 81.3 µM | HCT-116 > 100 µM | SF-539 93.3 µM | HCC 2998 > 100 µM | OVCAR-4 96.6 µM | CCRF-CEM > 100 µM

Cc1cc(C)nc(NS(=O)(=O)c2ccc(NC(=O)COC(=O)c3cccc4c(=O)c5ccccc5[nH]c34)cc2)n1
inactive: IGROV-1 43.5 µM | ACHN 47.5 µM | K562 32 µM | SF-268 37.7 µM | UACC-62 19.5 µM | OVCAR-5 20.7 µM | SN12C 40.4 µM | NCI-H23 29.7 µM | RXF 393 36.5 µM | NCI-H522 27.2 µM | HCT-116 23.7 µM | SF-539 19.5 µM | HCC 2998 21.1 µM | OVCAR-4 49.1 µM | CCRF-CEM 34.3 µM

CC(=O)c1c2c(cc3c1CC1(C3)Cc3cc4c(c(C(=O)O)c3C1)CCC4)CCC2 (configuration not stated)
inactive: IGROV-1 50.7 µM | ACHN 35.9 µM | K562 32.6 µM | SF-268 36.8 µM | UACC-62 28.6 µM | OVCAR-5 > 100 µM | SN12C 31.4 µM | NCI-H23 26.2 µM | RXF 393 45.5 µM | NCI-H522 15.9 µM | HCT-116 24.9 µM | SF-539 19.2 µM | HCC 2998 37.8 µM | OVCAR-4 49.1 µM | CCRF-CEM 27.7 µM

CC(=O)CC(=O)ON(C)C(=O)Cc1ccccc1
inactive: IGROV-1 > 100 µM | ACHN > 100 µM | K562 > 100 µM | SF-268 > 100 µM | UACC-62 > 100 µM | OVCAR-5 > 100 µM | SN12C > 100 µM | NCI-H23 > 100 µM | RXF 393 > 100 µM | NCI-H522 > 100 µM | HCT-116 > 100 µM | SF-539 > 100 µM | HCC 2998 > 100 µM | OVCAR-4 > 100 µM | CCRF-CEM > 100 µM

COc1ccc(-c2nc(Sc3c([N+](=O)[O-])ncn3C)n[nH]2)cc1
inactive: IGROV-1 4.12 µM | SK-MEL-2 2.25 µM | ACHN 3.61 µM | K562 2.99 µM | SF-268 3.94 µM | UACC-62 3.08 µM | OVCAR-5 21 µM | SN12C 2.64 µM | NCI-H23 1.77 µM | RXF 393 1.77 µM | NCI-H522 2.27 µM | HCT-116 2.81 µM | SF-539 1.87 µM | HCC 2998 8.87 µM | OVCAR-4 8.24 µM | CCRF-CEM 2.89 µM

COC(=O)C1(c2ccc(OC)cc2)NC(c2ccccc2)C2C(=O)N(c3ccc(OC)cc3)C(=O)C21 (configuration not stated)
inactive: IGROV-1 > 100 µM | SK-MEL-2 > 100 µM | ACHN > 100 µM | K562 > 100 µM | SF-268 > 100 µM | UACC-62 > 100 µM | OVCAR-5 > 100 µM | SN12C > 100 µM | NCI-H23 > 100 µM | RXF 393 > 100 µM | NCI-H522 > 100 µM | SF-539 > 100 µM | HCC 2998 > 100 µM | OVCAR-4 > 100 µM | CCRF-CEM > 100 µM

CC(=O)Oc1cc(Cl)c(OC(C)=O)c2c(OC(C)=O)c(C)c(O[Si](C)(C)C(C)(C)C)cc12
inactive: IGROV-1 3.64 µM | SK-MEL-2 17.9 µM | K562 3.22 µM | SF-268 11.5 µM | SN12C 11.1 µM | NCI-H23 4.18 µM | RXF 393 3.28 µM | NCI-H522 5.07 µM | HCT-116 3.35 µM | SF-539 14.5 µM | HCC 2998 4.46 µM | OVCAR-4 13.2 µM | CCRF-CEM 2.54 µM

CN(C)C(=N)NC(=S)N(C)C
inactive: IGROV-1 > 100 µM | SK-MEL-2 > 100 µM | ACHN > 100 µM | K562 > 100 µM | SF-268 > 100 µM | UACC-62 > 100 µM | OVCAR-5 > 100 µM | SN12C > 100 µM | NCI-H23 > 100 µM | RXF 393 > 100 µM | NCI-H522 > 100 µM | HCT-116 > 100 µM | SF-539 > 100 µM | HCC 2998 > 100 µM | OVCAR-4 > 100 µM | CCRF-CEM > 100 µM

C/C(CC(=O)Nc1cccc([N+](=O)[O-])c1)=N\NC(=O)CC#N
inactive: IGROV-1 > 100 µM | SK-MEL-2 > 100 µM | K562 > 100 µM | SF-268 > 100 µM | UACC-62 > 100 µM | OVCAR-5 > 100 µM | NCI-H23 > 100 µM | RXF 393 > 100 µM | NCI-H522 99.1 µM | HCT-116 > 100 µM | SF-539 > 100 µM | HCC 2998 > 100 µM | CCRF-CEM > 100 µM

CC(CCCOC(c1ccccc1)(c1ccccc1)c1ccccc1)OC(=O)Nc1cc([N+](=O)[O-])cc([N+](=O)[O-])c1 (configuration not stated)
inactive: IGROV-1 30.9 µM | SK-MEL-2 29.4 µM | ACHN 27.7 µM | K562 32.1 µM | SF-268 35.5 µM | UACC-62 16.9 µM | SN12C 41.5 µM | NCI-H23 29 µM | RXF 393 43.3 µM | NCI-H522 23.7 µM | HCT-116 33.9 µM | SF-539 38 µM | HCC 2998 35.6 µM | OVCAR-4 37.5 µM | CCRF-CEM 32.4 µM

C/C(=N\O)C(CN(C)C)C(c1ccccc1)c1c(O)c2ccccc2oc1=O (configuration not stated)
inactive: IGROV-1 > 100 µM | SK-MEL-2 > 100 µM | K562 > 100 µM | SF-268 > 100 µM | UACC-62 > 100 µM | OVCAR-5 > 100 µM | SN12C > 100 µM | NCI-H23 > 100 µM | RXF 393 > 100 µM | NCI-H522 > 100 µM | HCT-116 > 100 µM | SF-539 > 100 µM | HCC 2998 > 100 µM | OVCAR-4 > 100 µM | CCRF-CEM > 100 µM
